According to patent US20020045780A1, “Biologically active spermidine analogues, pharmaceutical compositions and methods of treatment” (priority 1997, published 2002):
Where “and” joins values, the source holds several entries; their conditions need not be identical. Equal values may be shown once. Entries after “also recorded” stand apart in the source; their conditions may differ. Where a name gives a salt, the structure may show the parent alone. Read-outs that look alike come from different tables or passages of the source.

Legend:
[1] = test system: polyamine transport apparatus; experiment: Competitive uptake determination: inhibition of [3H]spermidine transport into L1210 cells; assay type: cell-based, murine; settings: analogue inhibition of spermidine transport
In short: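 Analogues competed with [3H]spermidine for uptake into L1210 cells. Values are Ki, derived from Lineweaver–Burk analysis as competitive inhibition with respect to spermidine.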

L1210 cells [2] = experiment: Polyamine pool analysis in L1210 cells; assay type: cell-based, murine; settings: for activity at 3 µM / activity at 15 µM / activity at 75 µM / activity at 100 µM / activity at 500 µM: Mus musculus, % of untreated control; for activity at 3 µM / activity at 15 µM / activity at 75 µM: L1210; for activity at 3 µM / activity at 15 µM / Analogue / activity at 75 µM: 48 hours; for Analogue: intracellular amount; for activity at 100 µM / activity at 500 µM: L1210, 48 h
In short: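 Cells were exposed to each analogue for 48 h at two concentrations. Washed pellets were extracted with 0.6 N HClO4 (1 ml/10^7 cells), and polyamines were quantified by HPLC of dansyl derivatives.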

[3] = test system: ornithine decarboxylase (ODC); experiment: ODC activity in treated L1210 cells; assay type: cell-based, murine; settings: L1210, 1 μM at 4 hours
In short: (§1)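 L1210 cells treated with triamines; ODC activity measured at 4 h and AdoMetDC at 6 h as ^14CO2 released from [^14C]-carboxyl-labeled L-ornithine (ODC) or S-adenosyl-L-methionine (AdoMetDC). Untreated cells served as controls and DEHSPM-treated cells as positive controls.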

[4] = test system: spermidine/spermine acetyltransferase (SSAT); experiment: SSAT activity in treated L1210 cells; assay type: cell-based, murine; settings: L1210, 10 μM at 48 hours (triamine analogues)
Excerpt: Spermidine/spermine N^1-acetyltransferase activity was based on quantitation of [^14C]-N^1-acetylspermidine formed by acetylation of SPD with [^14C] acetyl coenzyme A according to the method of Libby et al [Biochem. Pharmacol., Vol. 38, supra]. Cells treated with DENSPM were positive controls.

[5] = Acute toxicity in mice (single i.p. dose); assay type: in vivo; settings: female, CD-1, mouse, in vivo, ip, mice, single dose i.p., scored two hours after dose, read-out: Acute LD50
Experimental: In the current study, the acute toxicity of six analogues and the chronic toxicity of two triamines were measured (Table 7). The value of all polyamine LD50s are shown in both mg/kg and mmol/kg for comparison. […] The animals were scored two hours after administration of the drug. It is clear that the acute LD50s for triamine analogues are approximately twice the acute LD50s for the corresponding tetraamine analogues.
(§2) Acute and chronic toxicities were assessed in 10-12 week old CD-1 female mice from Harlan Sprague-Dawley. For acute toxicities, the polyamine analogues were administered in a single i.p. injection to groups of five or six animals at each dose. The animals were scored two hours after administration of the dose. All survivors were further observed for 10 days to assess late onset of toxicity from the single acute dose. In the chronic toxicity regimen, mice were administered polyamine analogue in three i.p. doses per day (t.i.d.) for six days, for a total of eighteen doses per animal. Appetite, weight and overall appearance were monitored daily. […] At least three test groups of 5-6 animals each, representing three different dose levels, were evaluated for each analogue tested. These dose levels were chosen so that at least two groups presented with lethalities, one with a high fraction of lethalities (>0.50, but <1.00).

[6] = test system: S-adenosylmethionine decarboxylase (AdoMetDC); experiment: AdoMetDC activity in treated L1210 cells; assay type: cell-based, murine; settings: L1210, 1 μM at 6 hours
In short: as §1

mice = assay type: in vivo; settings: for Chronic toxicity in mice relative to the related tetraamine: ratio of chronic LD50 values, Table 7
Experimental: In the chronic toxicity regimen, mice were administered the polyamine analogue in three doses per day (t.i.d.) for six days for a total of eighteen injections per animal and observed for 10 days after the final dose for lethalities. […] A similar difference is also observed in the chronic toxicity of DE(3,4).
as §2

L1210 cells [7] = experiment: L1210 growth inhibition, IC50 determination; assay type: cell-based, murine
Experimental: Murine L1210 leukemia cells (ATCC CCL 219) were maintained in logarithmic growth in RPMI-1640 medium containing 10% fetal calf serum or a semi-synthetic equivalent, NuSerum, 2% HEPES-MOPS buffer and 1 mM aminoguanidine.

L1210 cells [8] = experiment: Metabolic transformation of polyamine analogues by L1210 cells; assay type: in vitro ADME, murine; settings: for Parent drug as % of total drug in the cell / Parent drug in L1210 cells / N-Monodealkylation (result in words): 48 hours; for N-Monodealkylation (result in words): Trihydrochloride; for N-dealkylation (result in words): L1210 cells, data not shown, concentration not given
Experimental: The cells were washed twice with cold RPMI-1640, and the pellet was treated with 0.6 N HClO4 (1 ml/10^7 cells). Polyamine contents of the perchloric acid extracts were quantitated by HPLC of the DANSYL derivatives [Bergeron et al, J. Med. Chem., Vol. 37, supra].

[9] = test system: S-adenosylmethionine decarboxylase (AdoMetDC); settings: L1210, 1 μM at 6 hours; cited from earlier work
L1210 cells [10] = settings: cited from earlier work
L1210 cells [11] = settings: 48 hours, cited from earlier work; for Analogue, corresponding tetraamine (in parentheses): intracellular amount
[12] = target: polyamine transport apparatus; settings: inhibition of spermidine transport, L1210; read-out: Ki, corresponding tetraamine (in parentheses); cited from earlier work
[13] = test system: spermidine/spermine acetyltransferase (SSAT); settings: L1210, 2 μM at 48 hours (tetraamine analogues); cited from earlier work
[14] = mice, i.p. t.i.d. × 6 days, hydrochloride salts
[15] = Mus musculus, L1210, 48 h, L1210, 48 hour exposure, read-out: IC50 48 hour
[16] = Mus musculus, L1210, 96 h, L1210, 96 hour exposure, read-out: IC50 96 hour
[17] = L1210, 48 hour exposure, read-out: IC50 48 hour, corresponding tetraamine (in parentheses)
[18] = L1210, 96 hour exposure, read-out: IC50 96 hour, corresponding tetraamine (in parentheses)

SMILES	Ki [1]	activity at 15 µM (L1210 cells [2]; 15 μM, read-out: Put)	activity at 15 µM (L1210 cells [2]; 15 μM, read-out: Spd)	activity at 15 µM (L1210 cells [2]; 15 μM, read-out: Spm)	Analogue (L1210 cells [2]; 15 μM)	ODC activity, percent of untreated control [3]	LD50 at 2 h ([5]; hydrochloride salts)	LD50 at 2 h [5]	AdoMetDC activity, percent of untreated control [6]	Chronic LD50 (triamines) (mice; [14])	Chronic LD50 (triamines) (mice; mouse, in vivo, ip)	IC50 (L1210 cells [7]; [15])	IC50 (L1210 cells [7]; [16])	Parent drug as % of total drug in the cell (L1210 cells [8]; 100 μM analogue)	Parent drug in L1210 cells (L1210 cells [8]; 100 μM analogue)	AdoMetDC activity, corresponding tetraamine (in parentheses) [9]	IC50 (L1210 cells [10]; [17])	IC50 (L1210 cells [10]; [18])	Ki [12]	SSAT activity, corresponding tetraamine (in parentheses) [13]	other results
CCNCCCCCNCCCCNCC [DE(4,5), 3,8,14-Triazahexadecane Trihydrochloride]	64 µM	0%	18%	98%	3.40 nmol/10^6 cells	100% of untreated control	555 mg/kg	1640 µmol/kg	70% of untreated control	375 mg/kg-day	1.11 mmol/kg/day	2 to 6 µM	0.19 to 0.2 µM	100%	4215 pmols/10^6						activity at 3 µM (L1210 cells [2]; 3 μM, read-out: Put): 0%; activity at 3 µM (L1210 cells [2]; 3 μM, read-out: Spd): 47%; activity at 3 µM (L1210 cells [2]; 3 μM, read-out: Spm): 99%; Analogue (L1210 cells [2]; 3 μM): 1.20 nmol/10^6 cells; SSAT activity, percent of untreated control ([4]; Trihydrochloride): 120% of untreated control and 120 (120) percent of untreated control; Chronic toxicity in mice relative to the related tetraamine (mice; Trihydrochloride): about eight-fold less toxic than the DE(4,5,4); also recorded: greater than ten-fold less toxic than DE(5,4,5); IC50 (L1210 cells [7]; L1210, 48 hour exposure, Trihydrochloride, read-out: IC50 48 hour): 3 to 6 µM; N-Monodealkylation (result in words) (L1210 cells [8]; 100 μM analogue): do not show significant N-deethylation; also recorded: no N-deethylation
CCNCCCCCNCCCCCNCC [DE(5,5), 3,9,15-Triazaheptadecane Trihydrochloride]	174 µM	0%	55%	97%	1.09 nmol/10^6 cells	100% of untreated control	500 mg/kg	1420 µmol/kg	109% of untreated control			10 to 12 µM	0.65 to 0.7 µM								activity at 75 µM (L1210 cells [2]; 75 μM, read-out: Put): 0%; activity at 75 µM (L1210 cells [2]; 75 μM, read-out: Spd): 23%; activity at 75 µM (L1210 cells [2]; 75 μM, read-out: Spm): 73%; Analogue (L1210 cells [2]; 75 μM): 1.59 nmol/10^6 cells; SSAT activity, percent of untreated control [4]: 90% of untreated control; Parent drug as % of total drug in the cell (L1210 cells [8]; 75 μM analogue): 100%; Parent drug in L1210 cells (L1210 cells [8]; 75 μM analogue): 1585 pmols/10^6; N-Monodealkylation (result in words) (L1210 cells [8]; 75 μM analogue): do not show significant N-deethylation; N-Monodealkylation (result in words) (L1210 cells [8]; 75 μM analogue, listed as DE-[6,6]): no N-deethylation
CCNCCCCNCCCNCC [DESPD, N^1,N^8-Diethylspermidine Trihydrochloride]	19.3 µM					30% of untreated control	> 650 mg/kg	> 3220 µmol/kg	68% of untreated control	426 mg/kg-day	1.37 mmol/kg/day	~100 µM	0.6 to 0.8 µM	96.3%	4041 pmols/10^6						activity at 100 µM (L1210 cells [2]; 100 μM, read-out: Put): 0%; activity at 100 µM (L1210 cells [2]; 100 μM, read-out: Spd): 5%; activity at 100 µM (L1210 cells [2]; 100 μM, read-out: Spm): 74%; activity at 500 µM (L1210 cells [2]; 500 μM, read-out: Put): 0%; activity at 500 µM (L1210 cells [2]; 500 μM, read-out: Spd): 0%; activity at 500 µM (L1210 cells [2]; 500 μM, read-out: Spm): 55%; Analogue (L1210 cells [2]; 100 μM): 4.61 nmol/10^6 cells; Analogue (L1210 cells [2]; 500 μM): 4.20 nmol/10^6 cells; SSAT activity, percent of untreated control [4]: 1380% of untreated control; Animals died on day 6 (mice; female, CD-1, mouse, in vivo, 15 mg/kg, 3 days): 4/5; Animals died on day 7 (mice; female, CD-1, mouse, in vivo, 15 mg/kg, 7 day): 5/5; Chronic toxicity in mice relative to the related tetraamine (mice): about five times less toxic than DE(3,4,3)
CNCCCNCCCNCCCNC [DMNSPM]																49% of untreated control	> 100 µM	2.5 µM	5.6 µM	200% of untreated control	Put, corresponding tetraamine (in parentheses) (L1210 cells [11]; % of untreated control, 500 μM): (0) %; Spd, corresponding tetraamine (in parentheses) (L1210 cells [11]; % of untreated control, 500 μM): (3) %; Spm, corresponding tetraamine (in parentheses) (L1210 cells [11]; % of untreated control, 500 μM): (27) %; Analogue, corresponding tetraamine (in parentheses) (L1210 cells [11]; 100 μM): (2.14) nmol/10^6 cells; Analogue, corresponding tetraamine (in parentheses) (L1210 cells [11]; 500 μM): (1.84) nmol/10^6 cells; N-dealkylation (result in words) (L1210 cells [8]): no evidence of N-dealkylation
CNCCCNCCCCNCCCNC [DMSPM]																40% of untreated control	> 100 µM	0.75 µM	1.1 µM	300% of untreated control	Analogue, corresponding tetraamine (in parentheses) (L1210 cells [11]; 100 μM): (1.26) nmol/10^6 cells; Analogue, corresponding tetraamine (in parentheses) (L1210 cells [11]; 500 μM): (1.24) nmol/10^6 cells; N-dealkylation (result in words) (L1210 cells [8]): no evidence of N-dealkylation
CCNCCCNCCCNCCCN [MENSPM]																33% of untreated control	> 100 µM	2.5 µM	7.7 µM	410% of untreated control	
